Reference: ChEMBL document CHEMBL1909498, “Secoiridoid glucosides and related compounds from Syringa reticulata and their antioxidant activities” (Bioorg Med Chem Lett, 2011)

Legend:
[1] = system: Radical scavenging activity; test: Antioxidant activity assessed as DPPH radical scavenging activity after 30 mins by spectrophotometric analysis; type: functional
[2] = Antioxidant activity assessed as superoxide radical scavenging activity after 20 mins by spectrophotometric analysis; type: functional

Compound	EC50 [1] [µM]	EC50 [2] [µM]
COc1cc(/C=C/CO[C@H]2O[C@@H](CO)[C@H](O)[C@@H](O)[C@@H]2O)cc(OC)c1O[C@@H]1O[C@H](CO)[C@@H](O)[C@H](O)[C@H]1O [ISOSYRINGINOSIDE]	> 100	14.1
C/C=C1/[C@H](O[C@@H]2O[C@H](CO)[C@@H](O)[C@H](O)[C@H]2O)OC=C(C(=O)OC)[C@H]1CC(=O)OCCc1ccc(O)c(O)c1 [OLEUROPEIN]	20.8	2.57
C/C=C1/[C@H](O[C@@H]2O[C@H](CO)[C@@H](O)[C@H](O)[C@H]2O)OC=C(C(=O)OC)[C@H]1CC(=O)OC[C@H]1O[C@@H](O[C@@H]2OC=C(C(=O)OC)[C@@H](CC(=O)OCCc3ccc(O)c(O)c3)/C2=C\C)[C@H](O)[C@@H](O)[C@@H]1O [JASPOLYOSIDE]	> 100	4.97
C/C=C1/[C@H](O[C@@H]2O[C@H](CO)[C@@H](O)[C@H](O)[C@H]2O)OC=C(C(=O)OC)[C@H]1CC(=O)OCCc1ccc(O)cc1 [LIGSTROSIDE]	> 100	> 100
C/C=C1/[C@H](O[C@@H]2O[C@H](CO)[C@@H](O)[C@H](O)[C@H]2O)OC=C(C(=O)OC)[C@H]1CC(=O)OC[C@H]1O[C@@H](Oc2c(OC)cc(/C=C/CO)cc2OC)[C@H](O)[C@@H](O)[C@@H]1O [RETICULOSIDE]	> 100	64.1
COc1cc(/C=C/C=O)ccc1O[C@@H]1O[C@H](CO)[C@@H](O)[C@H](O)[C@H]1O [CONIFERYALDEHYDE GLUCOSIDE]	> 100	> 100
COc1cc([C@H]2OC[C@H]3[C@@H]2CO[C@@H]3c2cc(OC)c(O[C@@H]3O[C@H](CO)[C@@H](O)[C@H](O)[C@H]3O)c(OC)c2)cc(OC)c1O	> 100	> 100
OC[C@H]1O[C@@H](OCCc2ccc(O)c(O)c2)[C@H](O)[C@@H](O)[C@@H]1O	33	4.97
COc1cc(/C=C/CO)cc(OC)c1O[C@@H]1O[C@H](CO)[C@@H](O)[C@H](O)[C@H]1O [SYRINGIN]	> 100	70.9
COc1cc([C@H]2OC[C@H]3[C@@H]2CO[C@@H]3c2cc(OC)c(O[C@@H]3O[C@H](CO)[C@@H](O)[C@H](O)[C@H]3O)c(OC)c2)cc(OC)c1O[C@H]1O[C@@H](CO)[C@H](O)[C@@H](O)[C@@H]1O [LIRIODENDRTACHIOSIDE]	> 100	16
OC[C@H]1O[C@@H](OCCc2ccc(O)cc2)[C@H](O)[C@@H](O)[C@@H]1O [SALIDROSIDE]	> 100	> 100
COc1cc([C@H]2c3cc(O[C@@H]4O[C@H](CO)[C@@H](O)[C@H](O)[C@H]4O)c(OC)cc3C[C@@](O)(CO)[C@@H]2CO)ccc1O	> 100	39.3
COc1cc([C@@H]2OC[C@@](O)(Cc3ccc(O[C@@H]4O[C@H](CO)[C@@H](O)[C@H](O)[C@H]4O)c(OC)c3)[C@H]2CO)ccc1O	> 100	25.3
COc1cc(C[C@]2(O)CO[C@@H](c3ccc(O[C@H]4O[C@@H](CO)[C@H](O)[C@@H](O)[C@@H]4O)c(OC)c3)[C@@H]2CO)ccc1O	> 100	> 100
COc1cc(C[C@@H]2CO[C@@H](c3cc(OC)c(O)c(OC)c3)[C@@H]2CO)ccc1O[C@@H]1O[C@H](CO)[C@@H](O)[C@H](O)[C@H]1O [ARMANDISIDE]	> 100	10.6
COc1cc([C@H]2OC[C@H]3[C@@H]2CO[C@@H]3c2ccc(O[C@@H]3O[C@H](CO)[C@@H](O)[C@H](O)[C@H]3O)c(OC)c2)ccc1O	> 100	18.6
COc1cc(/C=C/C=O)cc(OC)c1O[C@@H]1O[C@H](CO)[C@@H](O)[C@H](O)[C@H]1O [SINAPALDEHYDE GLUCOSIDE]	> 100	> 100
